Reference: US11629171B2, “Beta-hairpin peptidomimetics” (POLYPHOR AG, priority 2017, dated 2023)
In brackets after ≈: the same amount, converted by molar mass. Where a SMILES comes first, the peptide text is derived from it. Bridges are numbered along the chain shown (N, C = ends). Roman numbers before positions name the chains, in order. [ ]: non-standard residue; d: D form. dDab = NCC[C@@H](N)C(=O)O; Orn = NCCC[C@H](N)C(=O)O; Dab = NCC[C@H](N)C(=O)O; Abu = CC[C@H](N)C(=O)O; Dap = NC[C@H](N)C(=O)O

Columns and labels:
Format in all cases: cell-based
[1] = system: Klebsiella pneumoniae 968733; conditions: 968733
Summary of the method: (§1)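 Broth microdilution per CLSI; MH-II (cation-adjusted) + 0.002% P-80 final; ~10^6 CFU/mL inoculum; 2-fold peptide series; 35° C, 18-20 h; MIC = no visible growth, μg/mL.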

[2] = system: Klebsiella pneumoniae SSI #3010; conditions: SSI #3010
Summary of the method: as §1

Escherichia coli 926415 = conditions: 926415
Summary of the method: as §1

[3] = system: Enterobacter cloacae 848840; conditions: 848840
Summary of the method: as §1

[4] = system: Acinetobacter baumannii 872842; conditions: 872842
Summary of the method: as §1

[5] = system: Escherichia coli ATCC 25922; conditions: ATCC 25922
Summary of the method: as §1

[6] = system: Pseudomonas aeruginosa ATCC 27853; conditions: ATCC 27853
Summary of the method: as §1

[7] = system: Acinetobacter baumannii DSM 30008; conditions: DSM 30008
Summary of the method: as §1

[8] = system: human red blood cells (hRBC); assay: Hemolysis; conditions: red cells of human, 1 h, 200
Summary of the method: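 Washed fresh human RBC (20% v/v) incubated with peptide at 200 μg/mL for 1 h at 37° C with shaking. Supernatant OD540 measured after dilution, blank corrected; percent hemolysis = OD540 peptide / OD540 of 2% Triton X-100 lysis × 100, PBS with 10% water as 0%.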

Compound | MIC [1] | Klebsiella pneumoniae SSI #3010 MIC [2] | MIC (Escherichia coli 926415) | MIC [3] | MIC [4] | Escherichia coli ATCC 25922 MIC [5] | Pseudomonas aeruginosa ATCC 27853 MIC [6] | Acinetobacter baumannii DSM 30008 MIC [7] | Hemolysis at 200 μg/mL [8]
CC(=O)N[C@H](C(=O)N[C@H]1CSSC[C@@H](C(=O)N[C@@H](CO)C(N)=O)NC(=O)[C@H](C(C)C)NC(=O)[C@H](CO)NC(=O)[C@H](Cc2c[nH]c3ccccc23)NC(=O)[C@H](CCC(=O)N[C@@H](CCN)C(=O)N[C@H](C(=O)N[C@@H](CN)C(=O)N[C@H]2CCNC(=O)[C@H]([C@@H](C)O)NC(=O)[C@H](CCN)NC(=O)[C@H](CCN)NC(=O)[C@H](CC(C)C)NC(=O)[C@@H](CC(C)C)NC(=O)[C@H](CCN)NC2=O)[C@@H](C)O)NC(=O)[C@@H](CCN)NC(=O)[C@H](CCN)NC(=O)[C@H](CO)NC(=O)[C@H](Cc2ccc(O)cc2)NC1=O)C(C)C [Ex. 356] (I: Ac-VCYS[Dab][dDab]EWSVCS-NH2 / II: [Dab]T[Dap][Dab][Dab][dL]L[Dab][Dab]T; disulfide I:2-I:11; amide I:7-II:N; lactam II:4-II:C) | 0.25 µg/mL (≈ 0.104 µM) | 0.0625 µg/mL | 0.25 µg/mL (≈ 0.104 µM) | 0.125 µg/mL (≈ 0.0521 µM) | 0.125 µg/mL (≈ 0.0521 µM) | 0.0625 µg/mL | 0.125 µg/mL | 0.0625 µg/mL | 2%
CC(=O)N[C@H](C(=O)N[C@H]1CSSC[C@@H](C(=O)N[C@@H](CO)C(N)=O)NC(=O)[C@H](C(C)C)NC(=O)[C@H](CO)NC(=O)[C@H](Cc2c[nH]c3ccccc23)NC(=O)[C@H](CCC(=O)N[C@@H](CCN)C(=O)N[C@H](C(=O)N[C@@H](CN)C(=O)N[C@H]2CCNC(=O)[C@H]([C@@H](C)O)NC(=O)[C@H](CCN)NC(=O)[C@H](CCN)NC(=O)[C@H](CC(C)C)NC(=O)[C@@H](CC(C)C)NC(=O)[C@H](CCN)NC2=O)[C@@H](C)O)NC(=O)[C@@H](CCN)NC(=O)CNC(=O)[C@H](CO)NC(=O)[C@H](Cc2ccc(O)cc2)NC1=O)C(C)C [Ex. 357] (I: Ac-VCYSG[dDab]EWSVCS-NH2 / II: [Dab]T[Dap][Dab][Dab][dL]L[Dab][Dab]T; disulfide I:2-I:11; amide I:7-II:N; lactam II:4-II:C) | 0.5 µg/mL (≈ 0.212 µM) | 0.125 µg/mL | 0.5 µg/mL (≈ 0.212 µM) | 0.125 µg/mL (≈ 0.0531 µM) | 0.25 µg/mL (≈ 0.106 µM) | 0.0625 µg/mL | 0.25 µg/mL | 0.0625 µg/mL | <1%
CC(=O)N[C@H](C(=O)N[C@H]1CSSC[C@@H](C(=O)N[C@@H](CO)C(N)=O)NC(=O)[C@H](C(C)C)NC(=O)[C@H](CO)NC(=O)[C@H](Cc2c[nH]c3ccccc23)NC(=O)[C@H](CCC(=O)N[C@@H](CCN)C(=O)N[C@H](C(=O)N[C@@H](CN)C(=O)N[C@H]2CCNC(=O)[C@H]([C@@H](C)O)NC(=O)[C@H](CCN)NC(=O)[C@H](CCN)NC(=O)[C@H](CC(C)C)NC(=O)[C@@H](CC(C)C)NC(=O)[C@H](CCN)NC2=O)[C@@H](C)O)NC(=O)[C@@H](CCN)NC(=O)CNC(=O)[C@H](CCN)NC(=O)[C@H](Cc2ccc(O)cc2)NC1=O)C(C)C [Ex. 360] (I: Ac-VCY[Dab]G[dDab]EWSVCS-NH2 / II: [Dab]T[Dap][Dab][Dab][dL]L[Dab][Dab]T; disulfide I:2-I:11; amide I:7-II:N; lactam II:4-II:C) | 0.5 µg/mL (≈ 0.211 µM) | 0.0625 µg/mL | 0.25 µg/mL (≈ 0.106 µM) | 0.125 µg/mL (≈ 0.0528 µM) | 0.125 µg/mL (≈ 0.0528 µM) | 0.0625 µg/mL | 0.125 µg/mL | 0.0625 µg/mL | 2%
CC(=O)N[C@H](C(=O)N[C@H]1CSSC[C@@H](C(=O)N[C@@H](CO)C(N)=O)NC(=O)[C@H](C(C)C)NC(=O)[C@H](CO)NC(=O)[C@H](Cc2c[nH]c3ccccc23)NC(=O)[C@@H](CCC(=O)N[C@@H](CCN)C(=O)N[C@H](C(=O)N[C@@H](CN)C(=O)N[C@H]2CCNC(=O)[C@H]([C@@H](C)O)NC(=O)[C@H](CCN)NC(=O)[C@H](CCN)NC(=O)[C@H](CC(C)C)NC(=O)[C@@H](CC(C)C)NC(=O)[C@H](CCN)NC2=O)[C@@H](C)O)NC(=O)[C@@H](CCN)NC(=O)[C@H](CCCN)NC(=O)[C@H](CO)NC(=O)[C@H](Cc2ccc(O)cc2)NC1=O)C(C)C [Ex. 366] (I: Ac-VCYS[Orn][dDab][dE]WSVCS-NH2 / II: [Dab]T[Dap][Dab][Dab][dL]L[Dab][Dab]T; disulfide I:2-I:11; amide I:7-II:N; lactam II:4-II:C) | 2 µg/mL (≈ 0.829 µM) | 0.25 µg/mL | 0.5 µg/mL (≈ 0.207 µM) | 8 µg/mL (≈ 3.32 µM) | 0.5 µg/mL (≈ 0.207 µM) | 0.125 µg/mL | 0.25 µg/mL | 0.25 µg/mL | 4%
CC(=O)N[C@H](C(=O)N[C@H]1CSSC[C@@H](C(=O)N[C@@H](C)C(=O)N[C@@H](CO)C(N)=O)NC(=O)[C@H](C(C)C)NC(=O)[C@H](CO)NC(=O)[C@H](Cc2c[nH]c3ccccc23)NC(=O)[C@H](CO)NC(=O)[C@@H](CCN)NC(=O)[C@H](CCC(=O)N[C@@H](CCN)C(=O)N[C@H](C(=O)N[C@@H](CN)C(=O)N[C@H]2CCNC(=O)[C@H]([C@@H](C)O)NC(=O)[C@H](CCN)NC(=O)[C@H](CCN)NC(=O)[C@H](CC(C)C)NC(=O)[C@@H](CC(C)C)NC(=O)[C@H](CCN)NC2=O)[C@@H](C)O)NC(=O)[C@H](CCN)NC(=O)[C@H](Cc2ccc(O)cc2)NC1=O)C(C)C [Ex. 367] (I: Ac-VCY[Dab]E[dDab]SWSVCAS-NH2 / II: [Dab]T[Dap][Dab][Dab][dL]L[Dab][Dab]T; disulfide I:2-I:11; amide I:5-II:N; lactam II:4-II:C) | 0.0625 µg/mL (≈ 0.0253 µM) | 0.03125 µg/mL | 0.0625 µg/mL (≈ 0.0253 µM) | 0.0625 µg/mL (≈ 0.0253 µM) | 0.03125 µg/mL (≈ 0.0127 µM) | 0.01562 µg/mL | 0.0625 µg/mL | 0.007813 µg/mL | <1%
CC(=O)N[C@H](C(=O)N[C@H]1CSSC[C@@H](C(=O)N[C@@H](C)C(=O)N[C@@H](C(N)=O)[C@H](C)O)NC(=O)[C@H](C(C)C)NC(=O)[C@H](CO)NC(=O)[C@H](Cc2c[nH]c3ccccc23)NC(=O)[C@H](CO)NC(=O)[C@@H](CCN)NC(=O)[C@H](CCC(=O)N[C@@H](CCN)C(=O)N[C@H](C(=O)N[C@@H](CN)C(=O)N[C@H]2CCNC(=O)[C@H]([C@@H](C)O)NC(=O)[C@H](CCN)NC(=O)[C@H](CCN)NC(=O)[C@H](CC(C)C)NC(=O)[C@@H](CC(C)C)NC(=O)[C@H](CCN)NC2=O)[C@@H](C)O)NC(=O)[C@H](CCN)NC(=O)[C@H](Cc2ccc(O)cc2)NC1=O)C(C)C [Ex. 368] (I: Ac-VCY[Dab]E[dDab]SWSVCA[dT]-NH2 / II: [Dab]T[Dap][Dab][Dab][dL]L[Dab][Dab]T; disulfide I:2-I:11; amide I:5-II:N; lactam II:4-II:C) | 0.0625 µg/mL (≈ 0.0252 µM) | 0.03125 µg/mL | 0.01562 µg/mL (≈ 0.00629 µM) | 0.03125 µg/mL (≈ 0.0126 µM) | 0.03125 µg/mL (≈ 0.0126 µM) | 0.01562 µg/mL | 0.0625 µg/mL | 0.007813 µg/mL | 1%
CC[C@@H]1NC(=O)[C@@H](CC(C)C)NC(=O)[C@H](CCN)NC(=O)[C@@H](NC(=O)[C@H](CN)NC(=O)[C@@H](NC(=O)[C@H](CCN)NC(=O)CC[C@@H]2NC(=O)[C@H](CCN)NC(=O)[C@H](Cc3ccc(O)cc3)NC(=O)[C@@H](NC(=O)[C@@H](NC(C)=O)C(C)C)CSSC[C@@H](C(=O)N[C@@H](C)C(=O)N[C@H](CO)C(N)=O)NC(=O)[C@H]([C@@H](C)CC)NC(=O)[C@H](CO)NC(=O)[C@H](Cc3c[nH]c4ccccc34)NC(=O)[C@H](CO)NC(=O)[C@@H](CCN)NC2=O)[C@@H](C)O)CCNC(=O)[C@H]([C@@H](C)O)NC(=O)[C@H](CCN)NC(=O)[C@H](CCN)NC1=O [Ex. 369] (I: Ac-VCY[Dab]E[dDab]SWSICA[dS]-NH2 / II: [Dab]T[Dap][Dab][Dab][dL][Abu][Dab][Dab]T; disulfide I:2-I:11; amide I:5-II:N; lactam II:4-II:C) | 0.0625 µg/mL (≈ 0.0254 µM) | 0.03125 µg/mL | 0.0625 µg/mL (≈ 0.0254 µM) | 0.03125 µg/mL (≈ 0.0127 µM) | 0.03125 µg/mL (≈ 0.0127 µM) | 0.01562 µg/mL | 0.0625 µg/mL | 0.007813 µg/mL | <1%
